Test results reported in publication PMC11650849, “Brain endothelial permeability, transport, and flow assessed over 10 orders of magnitude using the in situ brain perfusion technique” (Fluids and Barriers of the CNS, 2024).
Read-outs that look alike come from different tables or passages of the source.

Legend:
[1] = Neutral fraction at pH 7.4 calculated from pKa; assay type: physicochemical; details: neutral fraction at perfusion fluid pH 7.40, calculated from pKa
[2] = rat, in vivo
[3] = for Brain Kin: calculated at brain blood flow […] and rat serum fu; for Extraction (unbound) / Brain vascular extraction (total): calculated at brain blood flow […]; for Extraction (unbound): free drug; for Brain vascular extraction (total): with rat serum fu
[4] = cited from earlier work; for Log Poct: octanol partition coefficient
[5] = cited from earlier work
[6] = In situ rat brain perfusion (brain uptake Kin, extraction E, BBB PS); details: for Log Pc: Pc in cm/s; for Log Po: Po in cm/s; for Log PoS: PoS in mL/s/g; for PcS: cerebral cortex, S = physiological saline, AB = artificial blood
[7] = ref Hansch et al. [123], Avdeef [46] or other sources
[8] = facilitated nutrients, transporter not given

Cc1nnc2n1-c1ccc(Cl)cc1C(c1ccccc1)=NC2 [Alprasolam]
fn (%) [1]: 100%

CN(C)CCOC(c1ccccc1)c1ccccc1 [Diphenhydramine]
fn (%) [1]: 1.96%

Nc1c(O)cccc1C(=O)O [3-hydroxy-anthranilic acid]
fn (%) [1]: 0.15% | Log Pc ([2]; pH 7.4): −5.88 | Log PoS ([2]; pH 7.4): −1.05 | Pc ([2]; pH 7.4): 1.31 ×10⁻⁶ cm/s | PcS ([2]; pH 7.4): 0.00013 mL/s/g | PoS ([2]; pH 7.4): 0.0886 mL/s/g | Log Po ([2]; pH 7.4): −3.05 | Po ([2]; pH 7.4): 886 ×10⁻⁶ cm/s | Brain Kin [3]: 0.000131 mL/s/g | Extraction (unbound) [3]: 0.54% | Brain vascular extraction (total) [3]: 0.54% | Log Poct [4, 7]: 1.05 | Log Doct pH=7.4 [4, 7]: −1.78 | fu,.p ([5]; rat in vivo measurements): 1.00

CCCCO [Butanol]
fn (%) [1]: 100% | Pc [2]: 1470 ×10⁻⁶ cm/s | PcS [2]: 0.15 mL/s/g | PoS [2]: 0.13 mL/s/g | Po [2]: 1270 ×10⁻⁶ cm/s | Brain Kin [3]: 0.0229 mL/s/g | Extraction (unbound) [3]: 99.8% | Brain vascular extraction (total) [3]: 97.5% | Peak flow rate for 90% E ([3]; protein-free physiologic saline pH 7.4): 3.8 mL/min/g | Maximal flow—90% extraction, PcS/2.3 ([3]; protein-free saline, pH 7.4): 0.064 mL/s/g | fu,.p ([5]; rat): 0.60

O=C1Nc2ccc(Cl)cc2C(c2ccccc2)=NC1O (centres unmarked) [Oxazepam]
fn (%) [1]: 100% | fu,.p ([5]; rat): 0.17

N[C@@H](CCC(=O)O)C(=O)O [L-Glutamate]
Log PS [6, 8]: −3.82 | PS [6, 8]: 0.000151 mL/s/g

O=C(O)c1cc(=O)c2ccccc2[nH]1 [Kynurenic acid]
fn (%) [1]: 4.6E−7% | Log Pc ([2]; pH 7.4): −5.92 | Log PoS ([2]; pH 7.4): 0.42 | PcS ([2]; pH 7.4): 0.00012 mL/s/g | PoS ([2]; pH 7.4): 2.60 mL/s/g | Log Po ([2]; pH 7.4): −1.58 | Po ([2]; pH 7.4): 26000 ×10⁻⁶ cm/s | fu,.p ([5]; rat in vivo measurements): 1.00

C[C@]12CC[C@H](O)CC1=CC[C@@H]1[C@@H]2CC[C@]2(C)C(=O)CC[C@@H]12 [DHEA]
fn (%) [1]: 100% | Log Poct [4, 7]: 3.00 | Log Doct pH=7.4 [4, 7]: 3.00 | fu,.p ([5]; rat in vivo measurements): 0.05

CCCCCCO [Hexanol]
fn (%) [1]: 100% | Extraction (unbound) [3]: 99.9% | Brain vascular extraction (total) [3]: 89.1% | fu,.p ([5]; rat in vivo measurements): 0.30

CN1C(=O)C(O)N=C(c2ccccc2)c2cc(Cl)ccc21 (centres unmarked) [Temazepam]
fn (%) [1]: 100% | fu,.p ([5]; rat): 0.18

CCCO [Propanol]
fn (%) [1]: 100% | fu,.p ([5]; rat): 0.74

Cc1nnc2n1-c1ccc(Cl)cc1C(c1ccccc1Cl)=NC2 [Triasolam]
fn (%) [1]: 100%

CN1C(=O)CN=C(c2ccccc2F)c2cc([N+](=O)[O-])ccc21 [Flunitrazepam]
fn (%) [1]: 100% | Best fit PcS ([2]; pH 7.4): 0.14 mL/s/g | Log Poct [4, 7]: 2.03 | Log Doct pH=7.4 [4, 7]: 2.03 | fu,.p ([5]; rat in vivo measurements): 0.19

Nc1ccccc1C(=O)O [Anthranilic acid]
fn (%) [1]: 0.33% | Log Poct [4, 7]: 1.21 | Log Doct pH=7.4 [4, 7]: −1.27 | fu,.p ([5]; rat in vivo measurements): 0.50 | Log Pc [6]: −4.92 | Log Po [6]: −2.44 | Log PoS [6]: −0.44 | Pc ([6]; S assumed 100 cm^2/g): 11.9 ×10⁻⁶ cm/s | Po ([6]; S assumed 100 cm^2/g): 3600 ×10⁻⁶ cm/s | PoS ([6]; brain vascular intrinsic PoS): 0.36 mL/s/g | PcS ([6]; flow 0.1–[…]): 0.0012 mL/s/g | PoS ([6]; intrinsic PS of neutral solute, PoS = PcS/fn, flow 0.1–[…]): 0.36 mL/s/g

NC(N)=O [Urea]
fn (%) [1]: 100% | Log Poct [4, 7]: −1.66 | Log Doct pH=7.4 [4, 7]: −1.66 | fu,.p ([5]; rat in vivo measurements): 1.00

COc1ccc2cc([C@H](C)C(=O)O)ccc2c1 [Naproxen]
fn (%) [1]: 0.05%

CC(=O)N[C@@H](CS)C(=O)O [N-acetyl-cysteine]
Extraction (unbound) [3]: 7.60E-05% | Brain vascular extraction (total) [3]: 7.60E-05% | Log Doct pH=7.4 [4]: −3.70 | fu,.p ([5]; rat in vivo measurements): 1.00 | Log Pc [6]: −7.74 | Log Po [6]: −7.74 | Log PoS [6]: −5.74 | Pc ([6]; S assumed 100 cm^2/g): 0.0182 ×10⁻⁶ cm/s | PoS ([6]; brain vascular intrinsic PoS): 1.82e-06 mL/s/g | PcS ([6]; flow 0.1–[…]): 1.82e-06 mL/s/g

O [Water]
BBB PcS [2]: 0.029 mL/s/g | Brain Equilibration t1/2, Measured [2]: 60 s | Kin Underestimate (linear regression vs two compartment model) [2]: 54% | Log Pc [2]: −3.54 | Log PoS [2]: −1.54 | Pc [2]: 287 ×10⁻⁶ cm/s | PcS [2]: 0.029 mL/s/g | PoS [2]: 0.0287 mL/s/g | Log Po [2]: −3.54 | Po [2]: 287 ×10⁻⁶ cm/s | Brain Equilibration t1/2, Calculated ([3]; plasma): 48.6 s | Log Poct [4, 7]: −0.59 | Log Doct pH=7.4 [4, 7]: −0.59 | fu,.p ([5]; rat in vivo measurements): 1.00

NC(=O)c1cccnc1 [Nicotinamide]
fn (%) [1]: 100% | Log Poct [4, 7]: −0.34 | Log Doct pH=7.4 [4, 7]: −0.34

CCO [Ethanol]
Brain Kin [3]: 0.0195 mL/s/g | Extraction (unbound) [3]: 83.0% | Brain vascular extraction (total) [3]: 81.4% | fu,.p ([5]; rat): 0.95

O=C(O)c1cccnc1C(=O)O [Quinolinic acid]
Log Pc ([2]; pH 7.4): −7.77 | Log PoS ([2]; pH 7.4): −3.13 | Pc ([2]; pH 7.4): 0.017 ×10⁻⁶ cm/s | PcS ([2]; pH 7.4): 1.7e-06 mL/s/g | PoS ([2]; pH 7.4): 0.000743 mL/s/g | Log Po ([2]; pH 7.4): −5.13 | Po ([2]; pH 7.4): 7.43 ×10⁻⁶ cm/s | Brain Kin [3]: 0.00019 mL/s/g | Extraction (unbound) [3]: 0.01% | Brain vascular extraction (total) [3]: 0.0071% | Log Poct [4, 7]: −1.44 | Log Doct pH=7.4 [4, 7]: −4.08 | fu,.p ([5]; rat in vivo measurements): 1.00

CC(N)=O [Acetamide]
fn (%) [1]: 100%
